The source of these data is PubChem BioAssay (NCI).

What all share (assay): inhibition of tumour cell growth, NCI panel, 48 h
For assay [1], the system named is UACC-62 melanoma.
Assay [2] concerns SF-295 CNS.
Assay [3] has as its system OVCAR-3 ovarian.
The subject of assay [4] is SK-MEL-28 melanoma.
The test system of assay [5] is SN12C renal.
The test system of assay [6] is HCC-2998 colon.
Assay [7] has as its system M14 melanoma.
Assay [8] concerns OVCAR-5 ovarian.
The test system of assay [9] is UACC-257 melanoma.
For assay [10], the system named is T-47D breast.

“And” between values parts separate entries of the source, which are not always exact repeats. Equal entries are not always repeated.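 The compound was tested at five concentrations on cells cultured in 96-well plates, with a 48-hour exposure period. The concentration for 50% growth inhibition is given as GI50. TGI denotes the concentration required for complete inhibition of growth.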

For the molecule `C=C1c2nc3ccccc3n2C=C(c2ccc(Cl)cc2)N1c1ccc(OC)cc1`, the TGI in assay [1] is more than 100 µM; in [2], 18.5 µM; in assay [3], 25.7 µM; in assay [4] it was 22.2 µM; in assay [5], 60 µM; in assay [6], 28.3 µM. For the same molecule, the TGI in assay [7] was 21 µM; in assay [8] it was 35 µM; in assay [9] it was 30.5 µM.
Turning to `NS(=O)(=O)c1cccc(NC(=S)NC(=O)Nc2ccc(Cl)c(Cl)c2)c1`, the TGI came to 26 µM in [1]; 44.7 µM in assay [2]; 42.9 µM in assay [4]; 32.6 µM in assay [5]; 67.6 µM in assay [10]; 28.2 µM in [7]. Besides, the values for the TGI in assay [8] and in assay [9] were 84 µM and more than 100 µM, respectively.
With `CCOC(=O)c1nnsc1NN`, the TGI in assay [1], in assay [2], in assay [3], in [4], in assay [5] and in [6] was more than 100 µM in each case. Besides, the TGI in [7], in [8] and in [9] was more than 100 µM each time.
As to `CCOC(=O)c1nc2cc(C(F)(F)F)ccc2nc1Nc1ccc(C(=O)NC(C(=O)OCC)C(=O)OCC)cc1`, the TGI in assay [1] was 27.6 µM; in assay [2] it was 30.8 µM; in [3] it was more than 100 µM; in assay [4], 69.2 µM; in assay [5], 47.2 µM; in assay [6], more than 100 µM. In addition, the TGI in assay [8] is more than 100 µM; in assay [9], 51.9 µM.
With `CO[C@]12C[C@H](CNC(=O)c3ccc[nH]3)O[C@H]1NC(=O)N2`, the TGI in assay [1], in assay [2], in [3], in assay [5], in assay [10] and in [7] was more than 100 µM throughout. The TGI in assay [8] and in assay [9] was more than 100 µM each time.
As for `CCCSc1nc(-c2ccc(OC)cc2)c(C#N)c(=O)n1C1OC(COC(C)=O)C(OC(C)=O)C(OC(C)=O)C1OC(C)=O` (configuration not stated), the TGI is more than 100 µM in assay [1]; > 100 µM and 92.6 µM in assay [2]; more than 100 µM in assay [3]; more than 100 µM in assay [4]; > 100 µM and 50.2 µM in [7]; > 100 µM and 48.8 µM in [8]. For the same molecule, the TGI in assay [9] is > 100 µM and 56.6 µM. Moreover, the GI50 in [2] is > 100 µM and 24.3 µM; in assay [3] it was > 100 µM and 35.3 µM; in assay [7], > 100 µM and 23.1 µM; in [8], > 100 µM and 21.2 µM; in [9], > 100 µM and 22.4 µM.
Turning to `S=c1cc(-c2ccc3c(c2)OCO3)s[nH]1`, the TGI in assay [1], in assay [2], in assay [3], in [4], in assay [5] and in assay [10] was more than 100 µM in each case. Besides, the TGI in assay [7], in assay [8] and in assay [9] was more than 100 µM throughout.
For the molecule `CC(=O)OC1CCC2C3CCc4c(C)ccc(OS(=O)(=O)c5ccccc5)c4C3CCC12C` (configuration not stated), the TGI is more than 100 µM in [1]; more than 100 µM in [2]; 46.7 µM in assay [3]; more than 100 µM in assay [4]; more than 100 µM in [5]; more than 100 µM in [6]. Further, the TGI in assay [8] and in assay [9] was more than 100 µM throughout.
As for `COc1ccc(N(C(=O)Nc2ccc(Cl)c(Cl)c2)C2c3cccn3C(=O)N2c2ccc(Cl)c(Cl)c2)cc1` (configuration not stated), the TGI in [1] was more than 100 µM; in [2] it was 94.8 µM; in assay [4], more than 100 µM; in [5], more than 100 µM; in assay [6], more than 100 µM; in [7], more than 100 µM. Further, the TGI in assay [8] and in [9] was more than 100 µM in each case.
`COc1cc2c(c(O)c1OC)C(=O)C(Cc1ccc(O)cc1)CO2` (configuration not stated): the TGI in [1] is more than 100 µM; in assay [2], 29.2 µM; in assay [3], 26.4 µM; in [4], more than 100 µM; in assay [5], more than 100 µM; in assay [10], 69.6 µM. Besides, the figures for the TGI in assay [7], in assay [8] and in assay [9] were 84 µM, more than 100 µM and more than 100 µM, respectively.
Turning to `N#Cc1nc(NC(=O)c2ccccc2C(=O)O)c(C#N)[nH]1`, the TGI in assay [1], in assay [2], in [3], in [4], in assay [5] and in [10] was more than 100 µM each time. For the same molecule, the TGI in assay [7], in assay [8] and in assay [9] was more than 100 µM each time.
As for `c1c2c(cc(-n3nnc4c3CCCCCC4)c1-n1nnc3c1CCCCCC3)CCCCCC2`, the TGI in assay [1] stood at 26.7 µM; in assay [2], 25.3 µM; in assay [3], 64.8 µM; in assay [4], 33.9 µM; in [5], 24.4 µM; in assay [6], 29.5 µM. The TGI came to 32.8 µM in assay [7], 30 µM in assay [8] and 32.9 µM in assay [9].
For the molecule `COc1c(O)c2c(=O)cc(OC)c3c4c(OC)cc(=O)c5c(O)c(OC)c6c(c(c1C(C(C)O)C6C(C)O)c23)c54` (configuration not stated), the TGI in assay [1] came to 3.54 µM; in [2], 1.97 µM; in [3], 2.66 µM; in assay [5], 3.17 µM; in assay [10], 8.33 µM; in [6], 1.65 µM. The values for the TGI in [7] and in [8] were 2.34 µM and 7.62 µM, respectively.
Take `COc1nc(C#CC(C)(C)C)nc(OC)n1`: the TGI was 42 µM in [1]; more than 100 µM in assay [2]; 77.3 µM in assay [3]; more than 100 µM in assay [4]; 79 µM in assay [5]; more than 100 µM in assay [10]. Moreover, the TGI in assay [7] was more than 100 µM; in [8] it was 42.5 µM; in assay [9], more than 100 µM.
Regarding `CO[C@@H]1O[C@H](C(=O)c2ccccc2)[C@H]2OC(C)(C)O[C@@H]12`, the TGI in assay [1], in [2], in assay [3], in assay [5], in [10] and in [6] was more than 100 µM in each case. Besides, the TGI in assay [7], in assay [8] and in assay [9] was more than 100 µM throughout.
